Measurements reported in patent publication US10711011B2, “Substituted oxazolidines as anti-bacterial agents” (BUGWORKS RESEARCH, INC., priority 2016, dated 2020).
Converted amounts (≈) assume the structure as drawn.

What was measured:
[1] = tested on: S. aureus ATCC 29213; test: Minimum Inhibitory Concentration (MIC) in LB media; format: cell-based, Staphylococcus aureus; details: for MIC: Staphylococcus aureus, ATCC29213, LB Media; for Minimum Inhibitory Concentration S. aureus ATCC 29213: LB Media
From the text: (§1) The compounds of Formula I are of interest due to their potent antibacterial effects. The ability of the invention compounds disclosed herein to achieve an antibacterial effect may be evaluated with regard to their ability to inhibit the growth of bacterial species like Escherichia coli ATCC 25922, Staphylococcus aureus ATCC 29213, Klebsiella pneumoniae ATCC 13883, Acinetobacter baumannii ATCC 19606, Pseudomonas aurigenosa ATCC 27853, Enterococcus faecalis ATCC 29212 and Enterococcus faecalis ATCC 29212 using an assay based on the following Minimum Inhibitory Concentration (MIC) protocol:
(§2) The test bacteria are grown in Luria Bertani Broth (HIMEDIA M1245), 25 grams of the powder is dissolved in 1000 ml distilled water and sterilized by autoclaving at 15 lbs pressure (121° C.) for 20 minutes. The medium sterility is checked by incubating at 37° C. for a period of 48 h.
(§3) Bacterial cultures that are stored as glycerol stocks at −80° C. are sub cultured on LB agar plates to obtain isolated colonies. A single colony of each strain is cultured in LB broth. The cultures are incubated at 37° C., 200 rpm till they reach an optical density (OD at 600 nm) of 0.8 to 1. […] Test compounds are dissolved in dimethyl sulfoxide (DMSO) to a stock concentration of 4 mg/ml. A twofold dilution series of this DMSO stock is prepared in a 96 well V bottom microtitre plate from rows A to H. A 3 μL volume of these dilutions are transferred to a 96-well flat bottom microtitre assay plate. Controls to monitor the effects of DMSO and media sterility are included. Each well is inoculated with 150 μL of the above diluted culture. The plates are incubated at 37° C. overnight in a humidified incubator. The following morning, the plates are read using a Spectrophotometer at 600 nm wavelength. […] The antibacterial activity (MIC) determined against representative Gram positive (S. aureus, E. faecalis) and Gram negative (E. coli, P. aurigenosa, K. pneumoniae and A. baumannii) pathogen were reported Table 1.

[2] = tested on: E. faecalis ATCC 29212; test: Minimum Inhibitory Concentration (MIC) in LB media; format: cell-based, Enterococcus faecalis; details: for MIC: Enterococcus faecalis, ATCC29212
From the text: as §1, §2, §3

[3] = tested on: E. coli ATCC 25922; test: Minimum Inhibitory Concentration (MIC) in LB media; format: cell-based, Escherichia coli; details: for MIC: Escherichia coli, ATCC25922, LB Media
From the text: as §1, §2, §3

[4] = tested on: P. aurigenosa ATCC 27853; test: Minimum Inhibitory Concentration (MIC) in LB media; format: cell-based, Pseudomonas aurigenosa; details: for MIC: Pseudomonas, ATCC27853, LB Media
From the text: as §1, §2, §3

[5] = tested on: K. pneumoniae ATCC 13883; test: Minimum Inhibitory Concentration (MIC) in LB media; format: cell-based, Klebsiella pneumoniae; details: for MIC: Klebsiella pneumoniae, ATCC13883, LB Media
From the text: as §1, §2, §3

[6] = tested on: A. baumannii ATCC 19606; test: Minimum Inhibitory Concentration (MIC) in LB media; format: cell-based, Acinetobacter baumannii; details: for MIC: Acinetobacter baumannii, ATCC19606, LB Media; for Minimum Inhibitory Concentration A. baumannii ATCC 19606: LB Media
From the text: as §1, §2, §3

[7] = molecular target: E. coli DNA gyrase (Escherichia coli, UniProt P0AES4+P0AES6); test: biochemical; details: supercoiling assay
[8] = molecular target: E. coli topoisomerase IV (Escherichia coli, UniProt P0AFI2+P20083); test: biochemical; details: decatenation assay; read-out: E. coli Topo IV IC50
Sequence of E. coli topoisomerase IV (P0AFI2 whole entry): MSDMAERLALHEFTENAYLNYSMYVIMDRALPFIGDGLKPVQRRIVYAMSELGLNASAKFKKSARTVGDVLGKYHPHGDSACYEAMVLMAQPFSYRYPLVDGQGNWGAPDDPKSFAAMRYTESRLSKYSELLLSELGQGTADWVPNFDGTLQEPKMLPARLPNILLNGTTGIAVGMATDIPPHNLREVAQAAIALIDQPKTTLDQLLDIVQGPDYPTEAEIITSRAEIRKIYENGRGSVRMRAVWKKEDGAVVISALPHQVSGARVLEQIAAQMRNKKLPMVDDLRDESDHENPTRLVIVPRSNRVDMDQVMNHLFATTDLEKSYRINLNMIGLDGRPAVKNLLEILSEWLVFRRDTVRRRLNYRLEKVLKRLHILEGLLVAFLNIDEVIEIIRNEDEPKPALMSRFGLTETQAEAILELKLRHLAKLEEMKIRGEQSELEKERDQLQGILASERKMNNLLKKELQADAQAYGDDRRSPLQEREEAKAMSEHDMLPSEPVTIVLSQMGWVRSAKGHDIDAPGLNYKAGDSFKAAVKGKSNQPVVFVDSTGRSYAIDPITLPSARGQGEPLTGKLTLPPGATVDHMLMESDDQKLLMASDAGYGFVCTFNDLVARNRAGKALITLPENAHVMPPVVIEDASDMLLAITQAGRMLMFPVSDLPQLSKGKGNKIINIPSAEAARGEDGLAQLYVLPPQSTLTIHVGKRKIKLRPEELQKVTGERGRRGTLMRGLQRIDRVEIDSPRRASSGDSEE
Sequence of E. coli topoisomerase IV (P20083 whole entry): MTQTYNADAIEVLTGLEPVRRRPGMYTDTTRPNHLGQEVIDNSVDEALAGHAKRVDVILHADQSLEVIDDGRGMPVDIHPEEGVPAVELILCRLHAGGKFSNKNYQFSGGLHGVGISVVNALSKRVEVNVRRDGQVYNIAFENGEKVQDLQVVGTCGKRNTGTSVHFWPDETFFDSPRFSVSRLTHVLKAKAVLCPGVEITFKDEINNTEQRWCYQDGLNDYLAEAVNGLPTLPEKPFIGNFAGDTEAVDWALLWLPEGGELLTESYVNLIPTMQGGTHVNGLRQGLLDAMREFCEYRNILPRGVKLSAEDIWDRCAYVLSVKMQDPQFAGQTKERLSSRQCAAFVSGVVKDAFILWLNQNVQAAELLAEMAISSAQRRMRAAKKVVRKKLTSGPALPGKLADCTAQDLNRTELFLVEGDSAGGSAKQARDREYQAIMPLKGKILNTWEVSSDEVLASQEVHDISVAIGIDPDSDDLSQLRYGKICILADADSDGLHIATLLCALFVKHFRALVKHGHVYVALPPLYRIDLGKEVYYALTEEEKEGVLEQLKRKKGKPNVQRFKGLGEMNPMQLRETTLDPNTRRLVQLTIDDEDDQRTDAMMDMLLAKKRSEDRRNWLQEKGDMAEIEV

Sequence of E. coli DNA gyrase (P0AES4 whole entry, one chain of several): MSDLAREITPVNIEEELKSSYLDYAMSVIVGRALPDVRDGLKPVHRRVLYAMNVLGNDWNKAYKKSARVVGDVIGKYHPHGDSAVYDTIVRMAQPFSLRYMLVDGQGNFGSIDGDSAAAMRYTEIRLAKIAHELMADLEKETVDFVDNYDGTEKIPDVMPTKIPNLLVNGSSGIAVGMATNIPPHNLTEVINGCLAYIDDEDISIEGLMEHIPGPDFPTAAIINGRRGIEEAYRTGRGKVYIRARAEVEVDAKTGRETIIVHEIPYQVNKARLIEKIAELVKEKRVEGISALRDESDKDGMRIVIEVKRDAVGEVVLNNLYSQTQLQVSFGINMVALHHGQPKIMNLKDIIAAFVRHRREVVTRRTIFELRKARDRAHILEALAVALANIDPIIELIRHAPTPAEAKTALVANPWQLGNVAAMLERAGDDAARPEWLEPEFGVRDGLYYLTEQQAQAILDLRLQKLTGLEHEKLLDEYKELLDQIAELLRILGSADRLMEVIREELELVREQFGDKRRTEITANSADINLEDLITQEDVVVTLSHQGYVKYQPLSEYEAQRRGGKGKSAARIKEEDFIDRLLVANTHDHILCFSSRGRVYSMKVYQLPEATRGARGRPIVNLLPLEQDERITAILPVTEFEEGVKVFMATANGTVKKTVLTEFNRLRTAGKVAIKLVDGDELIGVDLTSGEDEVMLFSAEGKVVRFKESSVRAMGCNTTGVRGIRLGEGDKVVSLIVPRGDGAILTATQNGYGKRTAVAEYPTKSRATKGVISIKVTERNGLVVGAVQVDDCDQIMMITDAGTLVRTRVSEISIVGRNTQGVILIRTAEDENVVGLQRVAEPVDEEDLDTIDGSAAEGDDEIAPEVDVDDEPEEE

| SMILES | MIC [1] [µg/mL] | MIC [2] [µg/mL] | MIC [3] [µg/mL] | MIC [4] [µg/mL] | MIC [5] [µg/mL] | MIC [6] [µg/mL] | IC50 [7] [nM] | IC50 [8] [nM] | Minimum Inhibitory Concentration S. aureus ATCC 29213 [1] [µg/mL] | Minimum Inhibitory Concentration A. baumannii ATCC 19606 [6] [µg/mL] | Minimum Inhibitory Concentration E. faecalis ATCC 29212 [2] [µg/mL] | Minimum Inhibitory Concentration E. coli ATCC 25922 ([3]; LB Media) [µg/mL] | Minimum Inhibitory Concentration P. aurigenosa ATCC 27853 ([4]; LB Media) [µg/mL] | Minimum Inhibitory Concentration K. pneumoniae ATCC 13883 ([5]; LB Media) [µg/mL] |
| --- | --- | --- | --- | --- | --- | --- | --- | --- | --- | --- | --- | --- | --- | --- |
| CN1C(=O)Cc2ccc(F)c(CNCCCC3CN(c4ccc5c(n4)NC(=O)CO5)C(=O)O3)c21 (racemic) [Example 6, 6-(5-(3-(((6-fluoro-1-methyl-2-oxoindolin-7-yl)methyl)amino)propyl)-2-oxooxazolidin-3-yl)-2H-pyrido[3,2-b][1,4]oxazin-3(4H)-one] | 0.13 (≈ 0.277 µM) | 0.5 (≈ 1.07 µM) | 0.25 (≈ 0.533 µM) | 1 (≈ 2.13 µM) | 0.5 (≈ 1.07 µM) | 0.25 (≈ 0.533 µM) | 56 | 459 | – | – | – | – | – | – |
| CN1C(=O)Cc2ccc(F)c(CCNCCC3CN(c4ccc5c(n4)NC(=O)CO5)C(=O)O3)c21 (racemic) [Example 11, 6-(5-(2-((2-(6-fluoro-1-methyl-2-oxoindolin-7-yl)ethyl)amino)ethyl)-2-oxooxazolidin-3-yl)-2H-pyrido[3,2-b][1,4]oxazin-3(4H)-one] | 0.03 (≈ 0.0639 µM) | 0.13 (≈ 0.277 µM) | 0.06 (≈ 0.128 µM) | 0.5 (≈ 1.07 µM) | 0.125 (≈ 0.266 µM) | 0.03 (≈ 0.0639 µM) | 55 | – | – | – | – | – | – | – |
| CN1C(=O)Cc2ccc(F)c(CNCCCC3CN(c4ccc5c(n4)NC(=O)CO5)C(=O)O3)c21 (single isomer, unassigned) [Example 9, 6-(5-(3-(((6-fluoro-1-methyl-2-oxoindolin-7-yl)methyl)amino)propyl)-2-oxooxazolidin-3-yl)-2H-pyrido[3,2-b][1,4]oxazin-3(4H)-one] | – | 0.5 (≈ 1.07 µM) | 0.25 (≈ 0.533 µM) | 2 (≈ 4.26 µM) | 0.5 (≈ 1.07 µM) | – | 89 | – | 0.13 | 0.125 | – | – | – | – |
| CN1C(=O)Cc2ccc(F)c(CNCCCC3CN(c4ccc5c(n4)NC(=O)CO5)C(=O)O3)c21 (single isomer, unassigned) [Example 10, 6-(5-(3-(((6-fluoro-1-methyl-2-oxoindolin-7-yl)methyl)amino)propyl)-2-oxooxazolidin-3-yl)-2H-pyrido[3,2-b][1,4]oxazin-3(4H)-one] | – | – | – | – | – | – | 106 | 398 | 0.06 | 0.06 | 0.5 | 0.125 | 1 | 0.25 |
| O=C(O)c1cn(C2CC2)c2cc(N3CCNCC3)c(F)cc2c1=O [Ciprofloxacin, reference compound] | 0.4 (≈ 1.21 µM) | 0.4 (≈ 1.21 µM) | 0.012 (≈ 0.0362 µM) | 0.1 (≈ 0.302 µM) | 0.05 (≈ 0.151 µM) | 0.4 (≈ 1.21 µM) | – | – | – | – | – | – | – | – |
| CN1C(=O)Cc2cccc(CNCCC3CN(c4ccc5c(n4)NC(=O)CO5)C(=O)O3)c21 (stereo not shown) [Example 1, 6-(5-(2-(((1-Methyl-2-oxoindolin-7-yl)methyl)amino)ethyl)-2-oxooxazolidin-3-yl)-2H-pyrido[3,2-b][1,4]oxazin-3(4H)-one] | 5 (≈ 11.4 µM) | 5 (≈ 11.4 µM) | 2.5 (≈ 5.71 µM) | 40 (≈ 91.4 µM) | 10 (≈ 22.9 µM) | 0.6 (≈ 1.37 µM) | – | – | – | – | – | – | – | – |
| CN1C(=O)Cc2ccc(F)c(CNCCC3CN(c4ccc5c(n4)NC(=O)CO5)C(=O)O3)c21 (stereo not shown) [Example 2, 6-(5-(2-(((6-Fluoro-1-methyl-2-oxoindolin-7-yl)methyl)amino)ethyl)-2-oxooxazolidin-3-yl)-2H-pyrido[3,2-b][1,4]oxazin-3(4H)-on] | 0.6 (≈ 1.32 µM) | 1.25 (≈ 2.74 µM) | 1.25 (≈ 2.74 µM) | 10 (≈ 22 µM) | 2.5 (≈ 5.49 µM) | 0.3 (≈ 0.659 µM) | 360 | – | – | – | – | – | – | – |
